Measured values: patent publication US20150125550A1, “APPLICATION OF 2,9-DI-SEC-BUTYL-1,10-PHENANTHROLINE AS A GLIOBLASTOMA TUMOR CHEMOTHERAPY” (priority 2013, published 2015)

How the values were obtained:
A549 lung cancer cells = experiment: SRB colorimetric assay, A549 lung cancer cells, 72 hours; assay type: cell-based, human; conditions: for IC50: A549, 72 hours, average ± SD of three curves; for IC50 times lower than cisplatin: A549
Procedure: A549 cells were cultured in RPMI media supplemented with 10% Fetal Bovine Serum and 1% nonessential amino acids. Sub-culturing was carried out every 3-4 days and was completed by removing the supernatant media and treating the adherent cells with 1.0 mL of a 0.25% (w/v) Trypsin/0.5 mM EDTA solution. The cells were then treated for approximately 3 minutes in a 37° C. incubator under a 5% CO2 atmosphere. Trypsinization was stopped by the addition of 7.0 mL of cell culture media, the suspended cells were collected by centrifugation, and the resulting cell pellet was re-suspended in fresh cell culture media. The cells were then diluted 1:4 by volume and incubated in a 37° C. incubator with 5% CO2. Cells were grown to 80-90% confluency prior to being used in the SRB colorimetric assays.
To test the effects of compounds 1-18 on the growth of A549 lung cancer cells, SRB cytotoxicity assays were done as described by Skehan et al. Cells were maintained in RPMI media as described above, collected, and diluted so that cells could be seeded in 96-well plates at a density of 4,000 cells/well. The 96-well plate was incubated overnight at 37° C. under a 5% CO2 atmosphere. Subsequently, sterifiltered DMSO stock solutions of the drugs were added to the wells in various concentrations (0-25 μM) and the 96-well plate was incubated at 37° C. under a 5% CO2 for an additional 72 hours. The supernatant cell culture medium was then removed and the cells were fixed for 1 hour with 10% cold trichloroacetic acid (100 μL per well). The trichloroacetic acid was discarded and the plates were washed 5 times with de-ionized water and air dried. After being stained with 0.4% SRB ([…]) and incubated at room temperature for 10 minutes, the cells were washed 5 times with 1% acetic acid and air dried. The bound SRB was dissolved in 10 mM unbuffered Tris, pH 10.5 ([…]) for 10 minutes at room temperature, and the absorbance at 492 nm was measured using a microplate reader. The percent cell growth was then calculated based upon the absorbance values relative to control samples not containing any drug. Each drug concentration was done in triplicate to yield a percent growth vs. drug concentration curve, and these growth curves were subsequently repeated two additional times. The growth curves from the three experiments were then plotted in GraphPad Prism and best-fit curves were used to generate the IC50 values for each curve.

[1] = Glutathione stability experiments (UV-visible spectra); assay type: physicochemical; conditions: 5.0×10^−5 M complex, one mole equivalent GSH, phosphate buffer pH 7.4, 15 hours
Procedure: 5.0×10^−3 M stock solutions of compounds 10-18 were prepared in acetonitrile or DMSO, and subsequently diluted in phosphate buffer (0.10M, pH 7.4) to yield a final gold complex concentration of 5.0×10^−5 M. A stock solution of reduced glutathione in phosphate buffer (0.10M, pH 7.4) was used to add one mole equivalent of GSH to the final gold complex solution, and UV-visible spectra of compounds 10-18 were subsequently collected every hour over a 15 hour period.

[2] = GSH buffer solution; cited from earlier work
GL-26 glioma cells [3] = experiment: SRB growth assay, cisplatin/SBP combination; assay type: cell-based, murine (C57BL/6); conditions: 0.8 μM cisplatin alone, 48 hours
Procedure: The murine (C57BL/6) glioma cell line, GL-26, which is highly tumorigenic in C57BL/6 mice, were used for these in-vitro experiments. GL-26 cells were cultured in DMEM/F12 supplemented with 10% FCS, 1% penicillin/streptomycin, 1% L-glutamine and 1% non-essential amino acids.
Sulforhodamine B (SRB) cytotoxicity assays were utilized to assess antitumor activity. GL-26 cells were plated in 96 well plates at a density of 4,000 cells/well (in a total volume of 100 µL) and incubated for 24 hours in a humidified atmosphere of 5% CO2 at 37° C. GL-26 cells were then exposed to Cisplatin at 0-25 μM with either 0.1 or 0.4 μM SBP for 48 hours. The supernatant was then discarded and the GL-26 cells were fixed with 10% cold trichloroacetic acid for 1 hour (100 μL/well). The cells were washed 5 times with de-ionized water, air dried, and stained with 0.4% SRB for 10 min (50 μL/well). GL-26 cells were then washed 5 times in 1% acetic acid and allowed to air dry. The bound SRB was dissolved in a 10 mM unbuffered Tris base (pH 10.5; 100 μL per well) and quantified by the absorbance at 492 nm using the SpectraMax plate reader (Molecular Devices). The fraction of cell growth was determined based upon the absorbance values in comparison to the control wells (0 μM SBP in 0.5% DMSO). All cell growth assays were done in a minimum of triplicates.

GL-26 glioma cells [4] = experiment: SRB growth assay, GL-26 glioma cells, 48 hr drug incubation; assay type: cell-based, murine (C57BL/6); conditions: Mus musculus, read-out: GL-26 cell growth inhibition
Procedure: The murine (C57BL/6) glioma cell line, GL-26, which is highly tumorigenic in the C57BL/6 mice. GL-26 cells were cultured in DMEM/F12 supplemented with 10% FCS, 1% penicillin/streptomycin, 1% L-glutamine and 1% non-essential amino acids. Human foreskin fibroblasts (HFFs) were cultured in DMEM/F12 supplemented with 10% FCS and 1% penicillin/streptomycin. Primary murine astrocytes were purified from C57BL/6 neonate brains and cultured in DMEM/F12 supplemented with 10% FCS, 1% non-essential amino acids, 1% Lglutamine, 50 IU/ml penicillin, […] and 10 mM Hepes buffer.
The sulforhodamine B (SRB) cytotoxicity assays were adapted from Skehan et al. (22). Briefly, either HFF, primary astrocytes or GL-26 cells were plated in 96-well plates at a density of 4,000 cells/well in a volume of 100 µL overnight at 37° C. and 5% CO2. DMSO stock solutions of SBP, MSBP or TMZ were used at a concentration range of 0.1-25 μM for 48 hr before the supernatant was discarded and the cells were fixed for 1 hr with 10% cold trichloroacetic acid (100 μL, per well). Cells used in recovery assay received fresh media for 48 hrs following the 48 hr drug incubation. The plate was then washed 5 times with de-ionized water, air dried, and stained with 0.4% SRB for 10 min (50 μL, per well). After washing 5 times in 1% acetic acid and air-drying, bound SRB was dissolved in 10 mM unbuffered Tris base (pH 10.5; 100 μL, per well). Bound SRB was then read by absorbance at 492 nm on a SpectraMax plate reader (Molecular Devices). The percent survival was then calculated based upon the absorbance values relative to control wells (0 μM SBP in 0.1% DMSO).

Row | Molecule | IC50 (A549 lung cancer cells; Homo sapiens) [nM] | IC50 (A549 lung cancer cells) [nM] | other results
1 | CCC(C)c1ccc2ccc3c(C)cc(C(C)CC)nc3c2n1 (centres unmarked) [Compound 4, 2,9-di-sec-butyl-4-methyl-1,10-phenanthroline] | 700 ± 110 |  | 
2 | CCCCc1ccc2ccc3cccnc3c2n1.[Cl][Au]([Cl])[Cl] [Compound 15, (2-mono-n-butyl-phenanthroline)AuCl3] |  | 370 ± 90 | redox stability in the presence of GSH [1]: no reduction to gold(I) or gold(0) occurred; IC50 times lower than cisplatin (A549 lung cancer cells): approximately 12 times; times more active than the free ligand (A549 lung cancer cells; A549 IC50 ratio): ~8 times
3 | Cc1cc(-c2ccccc2)nc2c1ccc1ccc(-c3ccccc3)nc12 [Compound 8, 2,9-di-phenyl-4-methtyl-1,10-phenanthroline] |  | 1350 ± 110 | 
4 | (2-mono-sec-butyl-2,2′-bipyridine)AuCl3 [Compound 18] |  |  | Cell Growth @ 12 μM (A549 lung cancer cells; A549, 12 μM): 100% Cell Growth @ 12 μM; reduction of A549 tumor cell growth (A549 lung cancer cells; concentrations used for compounds 1-8 and 10-17): did not reduce tumor cell growth at any of the concentrations
5 | CCC(C)c1ccc2ccc3ccc(C(C)CC)nc3c2n1.[Cl][Au]([Cl])[Cl] (centres unmarked) [Compound 10, (2,9-di-sec-butyl-1,10-phenanthroline)AuCl3] |  | 580 ± 150 | stability in the presence of GSH (previous studies) [2]: quite stable in the presence of a GSH buffer solution
6 | CCC(C)c1ccc2ccc3cccnc3c2n1.[Cl][Au]([Cl])[Cl] (centres unmarked) [Compound 14, (2-sec-butyl-1,10-phenanthroline)AuCl3] |  | 770 ± 70 | 
7 | CCCCc1ccc2ccc3ccc(CCCC)nc3c2n1.[Cl][Au]([Cl])[Cl] [Compound 11, (2,9-di-n-butyl-1,10-phenanthroline)AuCl3] |  | 340 ± 60 | IC50 times lower than cisplatin (A549 lung cancer cells): approximately 12 times; times more active than the free ligand (A549 lung cancer cells; A549 IC50 ratio): approximately 3 times
8 | Cc1ccc2ccc3ccc(C)nc3c2n1 [Compound 3, 2,9-di-methyl-1,10-phenanthroline] | 1350 ± 90 |  | 
9 | CCC(C)c1ccc2ccc3c(C)cc(C(C)CC)nc3c2n1.[Cl][Au]([Cl])[Cl] (centres unmarked) [Compound 13, (2,9-di-sec-butyl-4-methyl-1,10-phenanthroline)AuCl3] |  | 4020 ± 320 | times less active than the corresponding free ligand (A549 lung cancer cells; A549 IC50 ratio): approximately 6 times
10 | CCCCc1ccc2ccc3ccc(CCCC)nc3c2n1 [Compound 2, 2,9-di-n-butyl-1,10-phenanthroline] | 1080 ± 280 |  | 
11 | Cc1cc(-c2ccccc2)nc2c1ccc1ccc(-c3ccccc3)nc12.[Cl][Au]([Cl])[Cl] [Compound 17, (2,9-di-phenyl-4-methtyl-1,10-phenanthroline)AuCl3] |  | 1370 ± 110 | 
12 | CCCCc1ccc2ccc3cccnc3c2n1 [Compound 6, 2-mono-n-butyl-phenanthroline] | 2920 ± 470 |  | 
13 | Cc1ccc2ccc3ccc(C)nc3c2n1.[Cl][Au]([Cl])[Cl] [Compound 12, (2,9-di-methyl-1,10-phenanthroline)AuCl3] |  | 1470 ± 210 | 
14 | N.N.[Cl][Pt][Cl] [cisplatin, [Pt(NH3)2Cl2], reference compound] |  | 4670 ± 210 | cell growth compared to untreated tumor cells (GL-26 glioma cells [3]): approximately 78%
15 | CCC(C)c1ccc2ccc3cccnc3c2n1 (centres unmarked) [Compound 5, 2-sec-butyl-1,10-phenanthroline] | 620 ± 160 |  | inhibition at 6 µM (GL-26 glioma cells [4]; GL26, 6 μM): 0.6 ± 1.2%; inhibition at 25 µM (GL-26 glioma cells [4]; GL26, 25 μM): 24.7 ± 5%
16 | Cc1c(C)c2cccnc2c2ncccc12.[Cl][Au+][Cl] [[(^5,6-di-methylphen)AuCl2]^+, reference compound] |  |  | stability in the presence of GSH (previous studies) [2]: underwent immediate reduction to gold(0) in the presence of GSH
17 | [Cl][Au]([Cl])[Cl].c1ccc(-c2ccc3ccc4ccc(-c5ccccc5)nc4c3n2)cc1 [Compound 16, (2,9-di-phenyl-1,10-phenanthroline)AuCl3] |  | 1650 ± 130 | 
18 | c1ccc(-c2ccc3ccc4ccc(-c5ccccc5)nc4c3n2)cc1 [Compound 7, 2,9-di-phenyl-1,10-phenanthroline] | 1870 ± 210 |  | 
